In US20100304971A1, “HERBICIDAL COMBINATION” (Bayer CropScience AG, priority 2008, published 2010):

Tests used:
Polygonum convolvulus = experiment: Post-emergence action against weeds, greenhouse, visual scoring; assay type: in vivo; conditions: 11 days after application
Experimental: (§1) Seeds or rhizome pieces of monocotyledonous and dicotyledonous weeds were placed in sandy loam soil in plastic pots, covered with soil and cultivated in a greenhouse under good growth conditions. Three weeks after sowing, the test plants were treated at the 2- to 4-leaf stage. The compounds according to the invention, formulated as wettable powders or as emulsion concentrates, were sprayed onto the green parts of the plants in various dosages at a water application rate of 100 to 800 I/ha (converted). After the test plants had been left to stand in the greenhouse for 10 to 28 days under optimum growth conditions, the effect of the preparations was scored visually in comparison to untreated controls.
(§2) 0%=no control 100%=complete control

Veronica persica = experiment: as above; assay type: in vivo; conditions: 11 days after application
Experimental: as §1, §2

Compound: CCOc1cc(Cl)cc(CC)c1C1=C(O)C2(CCC(OC)CC2)NC1=O (stereo not drawn) [Compound B4-1, cis-3-(4-chloro-2-ethoxy-6-ethylphenyl)-4-hydroxy-8-methoxy-1-azaspiro[4.5]dec-3-en-2-one]
- Polygonum convolvulus Control in % (Polygonum convolvulus; Table 6, 7.5 g of ai/ha): 20%

Compound: COCCOCc1nc(C(F)(F)F)ccc1C(=O)C1C(=O)C2CCC(C2)C1=O (stereo not drawn) [Compound B3-5, 3-[[2-[(2-methoxyethoxy)methyl]-6-(trifluoromethyl)pyridin-3-yl]carbonyl]bicyclo[3.2.1]octane-2,4-dione]
- Veronica persica Control in % (Veronica persica; Table 2, 25 g of ai/ha): 20%

Compound: sodium salt of 2-iodo-N-[(4-methoxy-6-methyl-1,3,5-triazin-2-yl)carbamoyl]benzenesulfonamide [Compound A-2]
- Veronica persica Control in % (Veronica persica; Table 2, 2.5 g of ai/ha, 0%=no control, 100%=complete control): 5%
- Polygonum convolvulus Control in % (Polygonum convolvulus; Table 1, 2.5 g of ai/ha, 0%=no control, 100%=complete control): 10%
- Polygonum convolvulus Control in % (Polygonum convolvulus; Table 3, 2.5 g of active ingredient/ha): 20%
- Polygonum convolvulus Control in % (Polygonum convolvulus; Table 4, 2.5 g of active ingredient/ha): 0%
- Polygonum convolvulus Control in % (Polygonum convolvulus; Table 5, 2.5 g of ai/ha): 0%
- Polygonum convolvulus Control in % (Polygonum convolvulus; Table 6, 2.5 g of ai/ha): 0%

Compound: CS(=O)(=O)c1ccc(C(=O)C2C(=O)CCCC2=O)c(Cl)c1COCC1CCCO1 (stereo not drawn) [Compound B3-3, tefuryltrione]
- Polygonum convolvulus Control in % (Polygonum convolvulus; Table 3, 100 g of active ingredient/ha): 15%

Compound: CCSC(C)CC1CC(=O)C(/C(CC)=N/OC/C=C/Cl)=C(O)C1 (stereo not drawn) [Compound B2-3, clethodim]
- Polygonum convolvulus Control in % (Polygonum convolvulus; Table 4, 50 g of active ingredient/ha): 20%

Compound: CCO/N=C(\CC)C1=C(O)CC(c2c(C)cc(C)cc2C)CC1=O (stereo not drawn) [Compound B2-8, tralkoxydim]
- Polygonum convolvulus Control in % (Polygonum convolvulus; Table 5, 150 g of ai/ha): 20%

Compound: CS(=O)(=O)c1ccc(C(=O)C2C(=O)CCCC2=O)c(Cl)c1COCC(F)(F)F [Compound B3-4, tembotrione]
- Polygonum convolvulus Control in % (Polygonum convolvulus; Table 1, 50 g of ai/ha): 45%
